Results taken from patent publication US20250115595A1, “INHIBITORS OF HYPOXIA-INDUCIBLE FACTORS” (The Johns Hopkins University, priority 2021, published 2025).

Tests used:
C57BL/6 mice [1] = experiment: Safety after systemic (IP) dosing: fundus/angiography, ERG, tissue histology; assay type: in vivo, mouse
Protocol: Fundus photos and fluorescein angiographic images of the retina of C57BL/6 mice on day 30 following 5 daily intraperitoneal (IP) injections (day 0 to day 5) with 32-134D at 40 or 80 mg/kg compared to vehicle control (FIG. 17).
ERG measurements taken in C57BL/6 mice at day 7 (D7) and day 14 (D14) following 5 daily IP injections (day 0 to day 5) with vehicle control (Veh) or 32-134D at 20, 40, or 80 mg/kg/day.
To survey for possible organ damage following systemic administration, three-month-old mice were treated with the 80 mg/kg/day of 32-134D by IP injection for five consecutive days (days 0-4). On day 30, mice were sacrificed, perfused with PBS, and tissues were harvested and fixed in 4% paraformaldehyde (PFA). Harvested tissues included the brain, heart, muscle, liver, spleen, kidney, stomach, small intestine, and large intestine. Tissues were embedded with paraffin, sectioned at […], and stained with hematoxylin and eosin. Images were taken at 20× magnification.
(§1) Flash scotopic ERGs: All procedures were performed under dim red light. Mice were dark adapted overnight, anesthetized with ketamine (50 mg/kg) and xylazine (5 mg/kg) and pupils were dilated with a topical drop of tropicamide (1%). Scotopic ERG responses were measured using the Celeris ERG stimulator (Diagnosys, Lowell, MA) at flash intensities of 0.025, 0.25, 2.5, 7.96, and 79.06 cd/s/m2. ERGs were measured simultaneously from both eyes with a ground electrode placed into the forehead between the eyes and a reference electrode into the hip.
Fluorescein angiography in mice: To evaluate the effect of 32-134D on the retinal vasculature and vascular permeability, experimental animals were treated with 5 consecutive daily IP injections with 32-134D at 40 or 80 mg/kg. On day 30, mice were anesthetized using intramuscular injection with ketamine (50 mg/kg) and xylazine (5 mg/kg). Pupils were then dilated using 1% tropicamide eye drops and mice were placed on the imaging platform of the Phoenix Micron III retinal imaging microscope (Phoenix Research Laboratories, Pleasanton, CA). Goniovisc 2.5% (hypromellose; Sigma Pharmaceuticals, LLC, Monticello, IA) was applied liberally to keep the eye moist during imaging studies. Fundus photos were taken before administering 10 to 20 μl of 10% fluorescein sodium (Apollo Ophthalmics, Newport Beach, CA) IP injection. Rapid acquisition of fluorescein angiographic images was then performed for 5 minutes. Fluorescein leakage manifests as indistinct vascular borders progressing to diffusely hazy fluorescence. Fluorescein leakage was compared between different groups by quantifying the fluorescence intensities collected after 1, 2, and 3 minutes following fluorescein injection using ImageJ software (National Institutes of Health, Bethesda, MD).

HIF-1α and HIF-2α = experiment: HIF accumulation in hypoxic D120 hiPSC-derived retinal organoids; assay type: cell-based, human; settings: 1% O2, 12 hours
Protocol: To assess the therapeutic potential of 32-134D for diabetic patients, human induced pluripotent stem cell (hiPSC)-derived 3-dimensional (3D) retinal organoids were treated with 32-134D. It has been previously reported that hiPSC-derived 3D retinal organoids cultured under hypoxic conditions (1% O2) behave similar to ischemic human retinal tissue with increased accumulation of both HIF-1α and HIF-2α (J. Zhang et al., J Clin Invest 131 (2021)). By 120 days of differentiation (D120), the inner and outer retinal layers are clearly defined (FIGS. 32A and 32B) and contain the precursors of the major retinal cell types, including outer retina photoreceptors (expressing recoverin), few newly differentiating bipolar cell precursors (lacking expression of recoverin and Pax6), amacrine cells (expressing high levels of Pax6), as well as Müller cells (expressing CRALBP; FIGS. 32C and 32D).
Retinal organoids: An hiPSC line derived from CD34+ cord blood was used in this study (A18945, ThermoFisher Scientific) (P. W. Burridge et al., 2011, PLoS One 6, e18293). Undifferentiated hiPSCs and derived retinal organoids were routinely tested for Mycoplasma contamination by PCR. Cell culture, retinal differentiation, and organoid formation were conducted as previously described (X. Zhong et al., 2014, Nat Commun 5, 4047). Retinal organoids at 120 days of differentiation were used for experiments. […]

C57BL/6 mice [2] = experiment: Retinal safety after intraocular injection (ERG, histology, RGC count); assay type: in vivo, mouse
Protocol: To reduce the risk of systemic side effects while optimizing the delivery of drugs to retinal tissue, therapies for ocular vascular disease are often administered by intravitreal injection. Therefore, it was assessed whether […] causes retinal toxicity following intraocular administration. To this end, ERGs up to 5 weeks were examined following a single intraocular injection of increasing doses (70, 140, 210, and 350 ng) of 32-134D.
To assess whether a higher dose of 32-134D could facilitate less frequent administration, the safety of higher doses of intraocular administration of 32-134D was assessed. To this end, ERGs up to 2 weeks following a single intraocular injection of high doses (500 and 1,000 ng) of 32-134D were examined.
Intraocular injections: Intravitreal injections were performed with a PLI-100A Pico-liter Microinjector (Warner Instruments, Harvard Bioscience) using pulled-glass micropipettes. Each micropipette was calibrated to deliver a 1 μl volume on depression of a foot switch. The mice were anesthetized with a ketamine (100 mg/kg) and xylazine (5 mg/kg) mixture, and under a dissecting microscope, the sharpened tip of the micropipette was passed through the sclera just posterior to the limbus into the vitreous cavity and the foot switch was depressed, which caused fluid to penetrate into the vitreous space. Test compound was injected into the vitreous cavity in OIR and STZ mice for vascular permeability test, retinal vasculature and lysates for WB and qPCR analysis.
as §1

[3] = 5 daily IP injections 20, 40 or 80 mg/kg/day, D7 and D14

SMILES: Brc1ccc2c(-c3csc(-c4c[nH]c5c(Br)cccc45)n3)c[nH]c2c1 [Compound 32-134D, 4-(6-bromo-1H-indol-3-yl)-2-(7-bromo-1H-indol-3-yl)thiazole]
- tissue histology (brain, heart, muscle, liver, spleen, kidney, stomach, intestines) (C57BL/6 mice [1]; 80 mg/kg/day IP for five days, day 30): no evidence of toxicity
- ERG a-wave versus vehicle (C57BL/6 mice [1]; [3]): no statistically significant difference
- ERG b-wave versus vehicle (C57BL/6 mice [1]; [3]): no statistically significant difference
- fundus photos and fluorescein angiography of retina (C57BL/6 mice [1]; 5 daily IP injections 40 or 80 mg/kg, day 30): intact retinal vasculature and absence of capillary leakage
- accumulation of HIF-1α and HIF-2α protein (HIF-1α and HIF-2α): effectively prevented
- retinal histology including GCL (C57BL/6 mice [2]; 35 days after intraocular injection of up to 350 ng): normal histology
- number of RGCs on retinal flat mounts (C57BL/6 mice [2]; highest doses tested (210 or 350 ng), 35 days): unaffected
- ERG evidence of retina toxicity (C57BL/6 mice [2]; single intraocular injection 70, 140, 210, 350 ng, up to 5 weeks): no ERG evidence of retina toxicity
- ERG evidence of retina toxicity (C57BL/6 mice [2]; single intraocular injection 500 and 1,000 ng, up to 2 weeks): no ERG evidence of retina toxicity
